Legend:
[1] = system: HCT-116 human colon carcinoma cell line; experiment: Cell viability assay (SRB) in HCT-116; format: cell-based; settings: 72 hours after treatment, read-out: HCT116 IC50
Method: (§1) Human colon carcinoma cell line HCT-116 was a kind gift from Igor Ronninson from University of South Caroli, Columbia, USA. Human breast cancer cell line, JIMT-1 was kindly provided by Ali Osmay Güre from Bilkent University, Ankara, Turkey. Cells were cultured in Dulbecco's modified Eagle's medium (Lonza, NJ, USA), supplemented with 10% fetal bovine serum (FBS, Lonza), 1% non-essential amino acid (NEAA), 2 mM L-glutamine (Sigma Aldrich, MO, USA) and 50 U/ml penicillin/streptomycin (P/S). HCT-116 cells were cultured in McCoy's 5A (modified) (Gibco) medium supplemented with FBS, NEAA, L-glutamine and P/S. All cell lines were tested regularly using MycoAlert Mycoplasma Detection Kit (Lonza). The cumulative length of the cells between thawing and use in the experiments was less than 20 passages.
(§2) Newly synthesized molecules were dissolved in 100% DMSO to yield a stock concentration of 10 mM. For cell viability assay, JIMT-1 (3×10^3 cells/well) and HCT-116 (4×10^3), cells were seeded into 96-well plates, and 24 hours after cell seeding inhibitor treatments were performed at different concentrations. Cell viability was measured 72 hours after treatment with Sulforhodamine B (SRB, Sigma Aldrich) assay as recommended by the manufacturer.

[2] = system: JIMT-1 human breast cancer cell line; experiment: Cell viability assay (SRB) in JIMT-1; format: cell-based; settings: 72 hours after treatment, read-out: JIMT1 IC50
Method: as §1, §2

| IC50 [1] [nM] | IC50 [2] [nM] | Structure (SMILES) |
| --- | --- | --- |
| 448 | 212 | C[C@@H]1CN(c2nccc(Nc3cc(-c4ccc(Br)cc4)n[nH]3)n2)C[C@H](C)O1 [Compound 208, N-(3-(4-bromophenyl)-1H-pyrazol-5-yl)-2-((2R,6S)-2,6-dimethylmorpholino)pyrimidin-4-amine] |
| 31 | 30 | C[C@@H]1CN(c2nccc(Nc3cc(-c4ccc(OCF)cc4)n[nH]3)n2)C[C@H](C)O1 [Compound 210, 2-((2R,6S)-2,6-dimethylmorpholino)-N-(3-(4-(fluoromethoxy)phenyl)-1H-pyrazol-5-yl)pyrimidin-4-amine] |
| 39 | 43 | C[C@@H]1CN(c2nccc(Nc3cc(-c4ccc5c(c4)CCC5)[nH]n3)n2)C[C@H](C)O1 [Compound 211, N-(5-(2,3-dihydro-1H-inden-5-yl)-1H-pyrazol-3-yl)-2-((2R,6S)-2,6-dimethylmorpholino)pyrimidin-4-amine] |
| 5 | 6 | C[C@@H]1CN(c2nccc(Nc3cc(-c4ccc5c(ccn5C)c4)n[nH]3)n2)C[C@H](C)O1 [Compound 217, 2-((2R,6S)-2,6-dimethylmorpholino)-N-(3-(1-methyl-1H-indol-5-yl)-1H-pyrazol-5-yl)pyrimidin-4-amine] |
| 20 | 13 | COc1cc(F)c(-c2cc(Nc3ccnc(N4C[C@@H](C)O[C@@H](C)C4)n3)[nH]n2)cc1F [Compound 218, N-(3-(2,5-difluoro-4-methoxyphenyl)-1H-pyrazol-5-yl)-2-((2R,6S)-2,6-dimethylmorpholino)pyrimidin-4-amine] |
| 2260 | 1430 | CC1COCC(C)N1c1nccc(Nc2cc(-c3ccc(OC(F)F)cc3)n[nH]2)n1 (stereo not drawn) [Compound 227, N-(3-(4-(difluoromethoxy)phenyl)-1H-pyrazol-5-yl)-2-(3,5-dimethylmorpholino)pyrimidin-4-amine] |
| 62 | 96 | CC1COCCN1c1nccc(Nc2cc(-c3ccc(OC(F)F)cc3)n[nH]2)n1 (stereo not drawn) [Compound 229, N-(3-(4-(difluoromethoxy)phenyl)-1H-pyrazol-5-yl)-2-(3-methylmorpholino)pyrimidin-4-amine] |
| 1060 | 103 | C[C@@H]1CN(c2nccc(Nc3cc(-c4ccc(OC(F)F)cc4)n[nH]3)n2)C[C@@H](C)O1 [Compound 240, N-(3-(4-(difluoromethoxy)phenyl)-1H-pyrazol-5-yl)-2-((2R,6R)-2,6-dimethylmorpholino)pyrimidin-4-amine] |
| 1810 | 46 | C[C@H]1CN(c2nccc(Nc3cc(-c4ccc(OC(F)F)cc4)n[nH]3)n2)C[C@H](C)O1 [Compound 241, N-(3-(4-(difluoromethoxy)phenyl)-1H-pyrazol-5-yl)-2-((25,6S)-2,6-dimethylmorpholino)pyrimidin-4-amine] |
| 1490 | 110 | FC(F)Oc1ccc(-c2cc(Nc3ccnc(N4CCCC4)n3)[nH]n2)cc1 [Compound 242, N-(3-(4-(difluoromethoxy)phenyl)-1H-pyrazol-5-yl)-2-(pyrrolidin-1-yl)pyrimidin-4-amine] |
| 53 | 17 | FC(F)Oc1ccc(-c2cc(Nc3ccnc(N4CCCCC4)n3)[nH]n2)cc1 [Compound 243, N-(3-(4-(difluoromethoxy)phenyl)-1H-pyrazol-5-yl)-2-(piperidin-1-yl)pyrimidin-4-amine] |
| 1120 | 46 | FC(F)Oc1ccc(-c2cc(Nc3ccnc(N4CCC4)n3)[nH]n2)cc1 [Compound 244, 2-(azetidin-1-yl)-N-(3-(4-(difluoromethoxy)phenyl)-1H-pyrazol-5-yl)pyrimidin-4-amine] |
| ≥ 10000 | 47 | CC1CN(c2nccc(Nc3cc(-c4ccc(OC(F)F)cc4)n[nH]3)n2)C1 [Compound 245, N-(3-(4-(difluoromethoxy)phenyl)-1H-pyrazol-5-yl)-2-(3-methylazetidin-1-yl)pyrimidin-4-amine] |
| ≥ 10000 | 71 | FC1CN(c2nccc(Nc3cc(-c4ccc(OC(F)F)cc4)n[nH]3)n2)C1 [Compound 246, N-(3-(4-(difluoromethoxy)phenyl)-1H-pyrazol-5-yl)-2-(3-fluoroazetidin-1-yl)pyrimidin-4-amine] |
| ≥ 10000 | 142 | CC1(C)CN(c2nccc(Nc3cc(-c4ccc(OC(F)F)cc4)n[nH]3)n2)C1 [Compound 247, N-(3-(4-(difluoromethoxy)phenyl)-1H-pyrazol-5-yl)-2-(3,3-dimethylazetidin-1-yl)pyrimidin-4-amine] |
| ≥ 10000 | 1560 | CC1(F)CN(c2nccc(Nc3cc(-c4ccc(OC(F)F)cc4)n[nH]3)n2)C1 [Compound 248, N-(3-(4-(difluoromethoxy)phenyl)-1H-pyrazol-5-yl)-2-(3-fluoro-3-methylazetidin-1-yl)pyrimidin-4-amine] |
| ≥ 10000 | 305 | FC(F)Oc1ccc(-c2cc(Nc3ccnc(N4CC(F)(F)C4)n3)[nH]n2)cc1 [Compound 249, 2-(3,3-difluoroazetidin-1-yl)-N-(3-(4-(difluoromethoxy)phenyl)-1H-pyrazol-5-yl)pyrimidin-4-amine] |
| 1260 | 122 | FC(F)Oc1ccc(-c2cc(Nc3ccnc(N4CCC(F)(F)C4)n3)[nH]n2)cc1 [Compound 252, N-(3-(4-(difluoromethoxy)phenyl)-1H-pyrazol-5-yl)-2-(3,3-difluoropyrrolidin-1-yl)pyrimidin-4-amine] |
| 1560 | 148 | FC(F)Oc1ccc(-c2cc(Nc3ccnc(N4CCC(F)(F)CC4)n3)[nH]n2)cc1 [Compound 253, N-(3-(4-(difluoromethoxy)phenyl)-1H-pyrazol-5-yl)-2-(4,4-difluoropiperidin-1-yl)pyrimidin-4-amine] |
| 312 | 279 | FC(F)Oc1ccc(-c2cc(Nc3ccnc(N4CCCOCC4)n3)[nH]n2)cc1 [Compound 255, N-(3-(4-(difluoromethoxy)phenyl)-1H-pyrazol-5-yl)-2-(1,4-oxazepan-4-yl)pyrimidin-4-amine] |
| 8980 | 648 | FC(F)Oc1ccc(-c2cc(Nc3ccnc(N4CC5CCC(C4)O5)n3)[nH]n2)cc1 [Compound 260, 2-(8-oxa-3-azabicyclo[3.2.1]octan-3-yl)-N-(3-(4-(difluoromethoxy)phenyl)-1H-pyrazol-5-yl)pyrimidin-4-amine] |
| 7200 | 400 | FC(F)Oc1ccc(-c2cc(Nc3ccnc(N4C[C@@H]5C[C@H]4CO5)n3)[nH]n2)cc1 [Compound 261, 2-((1S,4S)-2-oxa-5-azabicyclo[2.2.1]heptan-5-yl)-N-(3-(4-(difluoromethoxy)phenyl)-1H-pyrazol-5-yl)pyrimidin-4-amine] |
| ≥ 10000 | 329 | FC(F)Oc1ccc(-c2cc(Nc3ccnc(N4C[C@H]5C[C@@H]4CO5)n3)[nH]n2)cc1 [Compound 262, 2-((1R,4R)-2-oxa-5-azabicyclo[2.2.1]heptan-5-yl)-N-(3-(4-(difluoromethoxy)phenyl)-1H-pyrazol-5-yl)pyrimidin-4-amine] |
| 79 | 30 | C[C@H]1COCCN1c1nccc(Nc2cc(-c3ccc(OC(F)F)cc3)n[nH]2)n1 [Compound 263, (S)-N-(3-(4-(difluoromethoxy)phenyl)-1H-pyrazol-5-yl)-2-(3-methylmorpholino)pyrimidin-4-amine] |
| 302 | 127 | C[C@@H]1COCCN1c1nccc(Nc2cc(-c3ccc(OC(F)F)cc3)n[nH]2)n1 [Compound 264, (R)-N-(3-(4-(difluoromethoxy)phenyl)-1H-pyrazol-5-yl)-2-(3-methylmorpholino)pyrimidin-4-amine] |
| 46 | 13 | COc1ccc(-c2cc(N(C)c3ccnc(N4C[C@@H](C)O[C@@H](C)C4)n3)[nH]n2)c(F)c1 [Compound 275, 2-((2R,6S)-2,6-dimethylmorpholino)-N-(3-(2-fluoro-4-methoxyphenyl)-1H-pyrazol-5-yl)-N-methylpyrimidin-4-amine] |
| 269 | 204 | C[C@@H]1CN(c2nccc(N(C)c3cc(-c4ccc(OCF)cc4)n[nH]3)n2)C[C@H](C)O1 [Compound 277, 2-((2R,6S)-2,6-dimethylmorpholino)-N-(3-(4-(fluoromethoxy)phenyl)-1H-pyrazol-5-yl)-N-methylpyrimidin-4-amine] |
| 436 | 131 | COc1ccc(-c2cc(Nc3nc(N4C[C@@H](C)O[C@@H](C)C4)ncc3Cl)[nH]n2)c(F)c1 [Compound 281, 5-chloro-2-((2R,6S)-2,6-dimethylmorpholino)-N-(3-(2-fluoro-4-methoxyphenyl)-1H-pyrazol-5-yl)pyrimidin-4-amine] |
| 46 | 45 | COc1ccc(-c2cc(Nc3nc(N4C[C@@H](C)O[C@@H](C)C4)ncc3F)[nH]n2)c(F)c1 [Compound 282, 2-((2R,6S)-2,6-dimethylmorpholino)-5-fluoro-N-(3-(2-fluoro-4-methoxyphenyl)-1H-pyrazol-5-yl)pyrimidin-4-amine] |

| Structure (SMILES) | IC50 [1] [nM] | IC50 [2] [nM] |
| --- | --- | --- |
| FC(F)Oc1ccc(-c2cc(Nc3ccnc(N4C5CCC4COC5)n3)[nH]n2)cc1 [Compound 259, 2-(3-oxa-8-azabicyclo[3.2.1]octan-8-yl)-N-(3-(4-(difluoromethoxy)phenyl)-1H-pyrazol-5-yl)pyrimidin-4-amine] | ≥ 10000 | 65 |
